# Entries after “also recorded” stand apart in the source; their conditions may differ. Peptide text beside a SMILES is read from it. * marks the point of attachment. βNA = c1ccc2cc(N*)ccc2c1
# Legend:
# [1] = test system: natural killer cells (NK); assay: NK function: lysis of K562 target cells (51Cr release) after preincubation of lymphocytes with compound; conditions: for NK toxicity / effect on NK function, in words: lymphocytes exposed 15 minutes at room temperature (FIG. 4, FIG. 5); for NK Toxicity (LD50): concentration which results in 50% loss of human NK function, PBL 15 minutes at 22° C.; for NK Function % Specific Cytotoxicity: Nil 50.8 (Table 2); for prevention of Leu-OMe ablation of NK activity / permanent effect on NK function: PBM; for prevention of Leu-OMe ablation of NK activity: 5 mM Leu-OMe with lysosomal inhibitor (FIG. 1); for permanent effect on NK function: agent alone, washed, 18 hours culture, E:T 40:1 (FIG. 1); for effect of unesterified dipeptides on NK cell survival or lytic activity: up to 5×10^-3 M
# Description: PBM were separated from heparinized venous blood of healthy donors by centrifugation over sodium diatrizoate-Ficoll gradients (Isolymph, Gallard-Schlesinger Chemical Mfg. Corp., Carle Place, N.Y.).
# All cell exposures to the amino acids, dipeptides or their methyl esters were carried out by suspending cells in Dulbecco's phosphate buffered saline (PBS) and incubating them at room temperature with the reagent at the indicated concentration and time interval.
# Percent of control cytotoxicity was calculated using the formula: [formula]
# [2] = test system: [^3 H]Leu-Leu-OMe uptake by PBL (facilitated transport); assay: Competitive inhibition of [3H]Leu-Leu-OMe uptake; assay type: cell-based, human; conditions: for inhibition at 250 µM: Homo sapiens, unlabeled compound 250 microM
# Description: Human peripheral blood lymphocytes (PBL) were incubated in the presence of [^3 H]labeled Leu-Leu-OMe at 22° C. for varying lengths of time. The incubation mixture was then centrifuged through silicone oil to separate the cells from any unbound or non-internalized [^3 HLeu-Leu-OMe. […] At 37° C., levels of [^3 H]Leu-Leu-OMe accumulation by PBL were increased above those seen at 22° C. (see Table 4).
# human erythrocytes (RBC) = assay: 51Cr release from RBC incubated with peptide ester alone; assay type: cell-based; conditions: for ^51 Cr Release from RBC: Nil 410 + 12
# Description: The following experiments were carried out to determine whether DPPI could generate a lytic product from Leu-Leu-OMe. In the experiment detailed in FIG. 12, ^51 Cr-labeled human erythrocytes (RBC) were incubated with varying concentrations of Leu-Leu-OMe alone or in the presence of purified bovine DPPI.
# [3] = [3H]Leu-Leu-OMe 10 microM (Table 6)
# [4] = 250 micro-M, Nil 40.8 (Table 16)
# [5] = [3H]Leu-Leu-OMe 10 microM (Table 5)
compound,measurement,setting,value
COC(=O)[C@H](CC(C)C)NC(=O)[C@H](C)N [Ala-Leu-OMe] (H-Ala-Leu-OMe),"NK toxicity / effect on NK function, in words",[1],had no NK inhibitory effects
COC(=O)[C@H](CC(C)C)NC(=O)[C@@H](N)CC(=O)O [Asp-Leu-OMe] (H-Asp-Leu-OMe),"competitive inhibition of [3H]Leu-Leu-OMe uptake, in words",[2],not competitively inhibited
same,"NK toxicity / effect on NK function, in words",[1],exhibit no NK toxicity
"COC(=O)[C@H](Cc1ccccc1)NC(=O)[C@@H](N)CC(=O)O [Asp-Phe-OMe, aspartyl phenylalanine methyl ester] (H-Asp-Phe-OMe)",inhibition at 250 µM,[2]; [3],8%
same,NK Toxicity (LD50),[1],> 250 micro-M
same,"NK toxicity / effect on NK function, in words",[1],no observed NK inhibitory effects
same,NK Function % Specific Cytotoxicity,[1]; preincubation 100 micromolar,54.2%
same,NK Function % Specific Cytotoxicity,[1]; preincubation 250 micromolar,45.7%
same,NK Function % Specific Cytotoxicity,[1]; preincubation 500 micromolar,45.7%
same,NK Function % Specific Cytotoxicity,[1]; preincubation 1000 micromolar,46.9%
COC(=O)[C@H](CC(C)C)NC(=O)CN [Gly-Leu-OMe],"NK toxicity / effect on NK function, in words",[1],greatly reduced NK toxicity
NCC(=O)N[C@@H](Cc1ccccc1)C(N)=O [Gly-Phe-NH2] (H-Gly-Phe-NH2),NK Function % Specific Lysis K562,[1]; [4],43.9%
same,"NK toxicity / effect on NK function, in words",[1],has no apparent NK toxic effects
COC(=O)[C@H](Cc1ccccc1)NC(=O)CN [Gly-Phe-OMe] (H-Gly-Phe-OMe),NK Function % Specific Lysis K562,[1]; [4],34.5%
same,NK Function % Specific Lysis K562,"[1]; 500 micro-M, Nil 40.8 (Table 16)",10.1%
same,"NK toxicity / effect on NK function, in words",[1],a much less potent NK toxin than is Leu-Leu-OMe
"NCC(=O)N[C@@H](Cc1ccccc1)C(=O)Nc1ccc2ccccc2c1 [Gly-Phe-beta-naphthylamide, glycyl L-phenylalanyl beta napthylamide] (H-Gly-Phe-βNA)","competitive inhibition of [3H]Leu-Leu-OMe uptake, in words",[2],competitively inhibits [^3 H]Leu-Leu-OMe uptake by lymphocytes
same,NK Function % Specific Lysis K562,"[1]; 1 micro-M, Nil 40.8 (Table 16)",52.5%
same,NK Function % Specific Lysis K562,"[1]; 5 micro-M, Nil 40.8 (Table 16)",1.2%
same,NK Function % Specific Lysis K562,"[1]; 20 micro-M, Nil 40.8 (Table 16)",0.6%
same,"NK toxicity / effect on NK function, in words",[1],a very potent NK toxin
"CC[C@H](C)[C@H](N)C(=O)OC [Ile-OMe, reference compound]",prevention of Leu-OMe ablation of NK activity,[1],largely prevented
same,permanent effect on NK function,[1],"neither chloroquine, NH4 Cl, nor Ile-OMe had any substantial permanent effect on NK function"
COC(=O)[C@H](CC(C)C)NC(=O)[C@H](CC(C)C)NC(=O)[C@H](CC(C)C)NC(=O)[C@H](CC(C)C)NC(=O)[C@H](CC(C)C)NC(=O)[C@@H](N)CC(C)C [LLLLLLOMe] (H-LLLLLL-OMe),^51 Cr Release from RBC,human erythrocytes (RBC); 20 micro-M,698 + 137
same,^51 Cr Release from RBC,human erythrocytes (RBC); 100 micro-M,"6,129 + 400"
same,^51 Cr Release from RBC,human erythrocytes (RBC); 500 micro-M,"3,531 + 101"
same,"damage to RBC by compound alone, in words",human erythrocytes (RBC); no DPPI,Disruption of erythrocyte membranes was observed
COC(=O)[C@H](CC(C)C)NC(=O)[C@H](CC(C)C)NC(=O)[C@H](CC(C)C)NC(=O)[C@@H](N)CC(C)C [LLLLOMe] (H-LLLL-OMe),^51 Cr Release from RBC,human erythrocytes (RBC); 100 micro-M,425 + 24
same,^51 Cr Release from RBC,human erythrocytes (RBC); 500 micro-M,457 + 41
COC(=O)[C@H](CCCNC(=N)N)NC(=O)[C@@H](N)CC(C)C [Leu-Arg-OMe],"NK toxicity / effect on NK function, in words",[1],no observed NK inhibitory effects
COC(=O)CNC(=O)[C@@H](N)CC(C)C [Leu-Gly-OMe] (H-Leu-Gly-OMe),"NK toxicity / effect on NK function, in words",[1],greatly reduced NK toxicity
COC(=O)[C@H](CC(C)C)NC(=O)[C@H](CC(C)C)NC(=O)[C@@H](N)CC(C)C [Leu-Leu-Leu-OMe] (H-Leu-Leu-Leu-OMe),"competitive inhibition of [3H]Leu-Leu-OMe uptake, in words",[2],do not competitively inhibit PBL uptake of L-Leu-L-Leu-OMe
same,inhibition at 250 µM,[2]; [5],6%
same,concentration required for effect equivalent to Leu-Leu-OMe,[1]; MP-depleted lymphocytes (FIG. 4),5 fold
same,"NK toxicity / effect on NK function, in words",[1],caused dose-dependent loss of NK function
CC(C)C[C@H](NC(=O)[C@@H](N)CC(C)C)C(N)=O [Leu-Leu-NH2],"competitive inhibition of [3H]Leu-Leu-OMe uptake, in words",[2],do not competitively inhibit PBL uptake of L-Leu-L-Leu-OMe
same,inhibition at 250 µM,[2]; [5],8%
same,NK Function % Specific Lysis K562,"[1]; 1.00 micro-M, Nil 66 (Table 14)",66%
same,NK Function % Specific Lysis K562,"[1]; 250.00 micro-M, Nil 66 (Table 14)",71%
same,"NK toxicity / effect on NK function, in words",[1],no discernible toxicity for NK Cells
"CC(C)C[C@H](NC(=O)[C@@H](N)CC(C)C)C(=O)OCc1ccccc1 [Leu-Leu-OBenzyl, L-leucyl-L-leucyl benzyl ester]","competitive inhibition of [3H]Leu-Leu-OMe uptake, in words",[2],competitively inhibited
same,inhibition at 250 µM,[2]; [5],87%
same,potency relative to Leu-Leu-OMe in depleting human PBL of cytotoxic lymphocytes,[1],greater than twofold more potent than Leu-Leu-OMe
same,NK Function % Specific Lysis K562,"[1]; 6.25 micro-M during preincubation, Nil 66 (Table 14)",62%
same,NK Function % Specific Lysis K562,"[1]; 12.50 micro-M, Nil 66 (Table 14)",< 1%
same,NK Function % Specific Lysis K562,"[1]; 25.00 micro-M, Nil 66 (Table 14)",1%
same,"NK toxicity / effect on NK function, in words",[1],ablates human NK activity
"CC(C)C[C@H](N)C(=O)N[C@@H](Cc1ccccc1)C(=O)O [Leu-Phe, L-leucyl L-phenylalanine, reference compound] (H-Leu-Phe-OH)",effect of unesterified dipeptides on NK cell survival or lytic activity,[1],had no effect on NK cell survival or lytic activity
COC(=O)[C@H](Cc1ccc(O)cc1)NC(=O)[C@@H](N)CC(C)C [Leu-Tyr-OMe] (H-Leu-Tyr-OMe),"competitive inhibition of [3H]Leu-Leu-OMe uptake, in words",[2],excellent competitive inhibitors of [^3 H]Leu-Leu-OMe uptake
same,inhibition at 250 µM,[2]; [3],86%
same,NK Toxicity (LD50),[1],> 250 micro-M
same,"NK toxicity / effect on NK function, in words",[1],no observed NK inhibitory effects; also recorded: little or no toxicity for NK cells
"CC(C)C[C@H](N)C(=O)O [Leucine, L-leucine, reference compound]","NK toxicity / effect on NK function, in words",[1],had no irreversible effect on NK function
COC(=O)[C@H](CC(C)C)NC(=O)[C@@H](N)CCCCN [Lys-Leu-OMe] (H-Lys-Leu-OMe),"NK toxicity / effect on NK function, in words",[1],no observed NK inhibitory effects
"Cl.N [NH4 Cl, reference compound]",prevention of Leu-OMe ablation of NK activity,[1],largely prevented
same,permanent effect on NK function,[1],"neither chloroquine, NH4 Cl, nor Ile-OMe had any substantial permanent effect on NK function"
"CC(C)C[C@H](NC(=O)[C@@H](N)Cc1ccccc1)C(=O)O [Phe-Leu, L-phenylalanyl L-leucine, reference compound] (H-Phe-Leu-OH)",effect of unesterified dipeptides on NK cell survival or lytic activity,[1],had no effect on NK cell survival or lytic activity
COC(=O)[C@H](CC(C)C)NC(=O)[C@@H](N)Cc1ccccc1 [Phe-Leu-OMe] (H-Phe-Leu-OMe),"NK toxicity / effect on NK function, in words",[1],produced concentration-dependent ablation of NK function at concentrations comparable to those at which Leu-Leu-OMe was active
COC(=O)[C@@H](NC(=O)[C@@H](N)Cc1ccccc1)C(C)C [Phe-Val-OMe] (H-Phe-Val-OMe),"NK toxicity / effect on NK function, in words",[1],markedly less active than Val-Phe-OMe
COC(=O)[C@H](CC(C)C)NC(=O)[C@@H]1CCCN1 [Pro-Leu-OMe] (H-Pro-Leu-OMe),"competitive inhibition of [3H]Leu-Leu-OMe uptake, in words",[2],not competitively inhibited
same,inhibition at 250 µM,[2]; [3],-18%
same,NK Toxicity (LD50),[1],> 250 micro-M
same,"NK toxicity / effect on NK function, in words",[1],exhibit no NK toxicity
COC(=O)[C@H](CC(C)C)NC(=O)[C@@H](N)CO [Ser-Leu-OMe] (H-Ser-Leu-OMe),"competitive inhibition of [3H]Leu-Leu-OMe uptake, in words",[2],excellent competitive inhibitors of [^3 H]Leu-Leu-OMe uptake
same,inhibition at 250 µM,[2]; [3],94%
same,NK Toxicity (LD50),[1],> 250 micro-M
same,"NK toxicity / effect on NK function, in words",[1],no observed NK inhibitory effects; also recorded: little or no toxicity for NK cells
"CC(C)C[C@H](NC(=O)[C@@H](N)C(C)C)C(=O)O [Val-Leu, L-valyl L-leucine, reference compound] (H-Val-Leu-OH)",effect of unesterified dipeptides on NK cell survival or lytic activity,[1],had no effect on NK cell survival or lytic activity
COC(=O)[C@H](CC(C)C)NC(=O)[C@@H](N)C(C)C [Val-Leu-OMe] (H-Val-Leu-OMe),"NK toxicity / effect on NK function, in words",[1],produced concentration-dependent ablation of NK function at concentrations comparable to those at which Leu-Leu-OMe was active
"CC(C)[C@H](N)C(=O)N[C@@H](Cc1ccccc1)C(=O)O [Val-Phe, L-valyl L-phenylalanine, reference compound] (H-Val-Phe-OH)",effect of unesterified dipeptides on NK cell survival or lytic activity,[1],had no effect on NK cell survival or lytic activity
COC(=O)[C@H](Cc1ccccc1)NC(=O)[C@@H](N)C(C)C [Val-Phe-OMe] (H-Val-Phe-OMe),inhibition at 250 µM,[2]; [3],75%
same,NK Toxicity (LD50),[1],24 micro-M
same,"NK toxicity / effect on NK function, in words",[1],produced concentration-dependent ablation of NK function at concentrations comparable to those at which Leu-Leu-OMe was active; also recorded: among the most potent of the NK toxic dipeptide methyl esters
COC(=O)[C@@H](NC(=O)[C@@H](N)C(C)C)C(C)C [Val-Val-OMe] (H-Val-Val-OMe),"NK toxicity / effect on NK function, in words",[1],less active than either Leu-Val-OMe or Val-Leu-OMe
zinc [reference compound],effect on Leu-Leu-OMe mediated NK toxicity,[1]; added with Leu-Leu-OMe,appeared to inhibit this Leu-Leu-OMe toxicity

# From patent publication US5304474A, “Hydrophobic peptide esters and amides” (Board of Regents, The University of Texas System, priority 1991, dated 1994)
